Experiment: Spreading test: drop on a polybutene surface in a Petri dish, compared with water
Format: physicochemical
Conditions: water containing 0.1% by weight of spreading agent; drop of 50μ on polybutene; pure water about 10 mm
Source text: Compositions of the present invention have the advantage that they spread more efficiently and completely on polymeric conveyor surfaces than previously known conveyor lubricant compositions containing polydimethylsiloxane. […] When the lubricant is applied to a polymeric conveyor surface, the conveyor surface soon becomes very hydrophobic due to the adsorption and/or absorption of the silicone oil lubricant on the surface. The lubricant persists on the surface so that it presents a very hydrophobic surface to subsequently applied lubricant. The lubricants of the present invention readily wet the oil soaked silicone lubricant surface as evidenced by the lubricants rapidly spreading on the surface without beading. […]
A useful test to determine the spreading ratios of the lubricants of the present invention is to compare spreading on a standard polybutene surface in a Petri dish. In this test, a drop of 50μ of the composition to be measured is applied to a polybutene surface in a Petri dish and after 30 seconds the linear movement of the liquid is measured by taking the average diameter of the substantially circular liquid. Pure water has been measured to have a diameter of about 10 mm. […]
The compositions prepared above were diluted at a ratio of 1 part lubricant to 200 parts water. […] The spreading ratio of the lubricant was measured using the test as described above. […]

- movement of the drop (average diameter of the liquid) after 30 seconds: 110 mm
Substance: heptamethyl trisiloxane with a hydroxy terminated polyethyleneoxide pendant group [Silwet® L-7608]

Reference: patent US20060030497A1, “Conveyor track or container lubricant compositions” (priority 2004, published 2006)
